Source: patent US9011853B2, “B7-H4 fusion proteins and methods of use thereof” (Amplimmune, Inc., priority 2009, dated 2015)
Several values for one entry are separate records, joined by “and”; a condition that tells them apart may be missing. Equal values may be shown once.

System: serum levels of 58 analytes
Experiment: Serum biomarker analysis, quantitative immunoassay multi-analyte profiling (Rules-Based Medicine RodentMAP v2.9), AA#80
Format: in vivo, mouse
Conditions: serum
Protocol: In AA#80, serum samples were collected on Day 27, Day 34, Day 41 and Day 55 via the submandibular vein. Approximately 200 μL of blood per mouse was collected in Microtainer® serum separator tubes. Serum was removed following centrifugation and stored at <−65° C. until analysis.
Selected serum samples were sent to Rules-Based Medicine (Austin, Tex.) for quantitative immunoassay multi-analyte profiling of serum samples, with the goal of identifying biomarkers that could be used to monitor disease progression and response to B7-H4-Ig treatment. Day 27, Day 34, and Day 41 sera from the three representative mice in the B7-H4-Ig group (tag #3332, 3334, and 3338) and three representative mice in the Synagis® group (tag #3324, 3329, and 3330) were analyzed for levels of 58 analytes using the RodentMAP v2.9 Testing Service.
Data from the Rules-Based Medicine analysis was analyzed using Microsoft Excel and GraphPad Prism software. T-tests were performed to compare the levels of each analyte in the B7-H4-Ig versus Synagis® treated samples. No correction was made for multiple comparisons. Additionally, correlation coefficients were calculated for each analyte versus disease score.

Substance: Human B7-H4-Ig: human B7-H4 extracellular domain fused to hinge, CH2 and CH3 regions of human immunoglobulin Cγ1 chain; representative SEQ ID NOs:114-137
- MCP-5 (Monocyte Chemoattractant Protein-5) (Day 27, LDD 46.38): 41.4 pg/mL and 33.8 pg/mL and 29.4 pg/mL
- SCF (Stem Cell Factor) (Day 27, LDD 75.17): 204 pg/mL and 194 pg/mL and 275 pg/mL
- MIP-1beta (Macrophage Inflammatory Protein-1beta) (Day 27, LDD 77.65): 110 pg/mL and 115 pg/mL and 173 pg/mL
- Lymphotactin (Day 27, LDD 85.48): 164 pg/mL and 169 pg/mL and 194 pg/mL
- VWF (Von Willebrand Factor) (Day 27, LDD 98.6): 143 ng/mL and 123 ng/mL and 107 ng/mL
- M-CSF (Macrophage-Colony Stimulating Factor) (Day 34, LDD 0.01795): 5.79 ng/mL and 6.35 ng/mL and 6.51 ng/mL
- MIP-1gamma (Macrophage Inflammatory Protein-1gamma) (Day 34, LDD 0.0736): 50.4 ng/mL and 30.1 ng/mL and 41 ng/mL
- TNF-alpha (Tumor Necrosis Factor-alpha) (Day 34, LDD 0.137): <low>
- IL-5 (Interleukin-5) (Day 34, LDD 0.194): 0.474 ng/mL and 0.264 ng/mL and 0.403 ng/mL
- MIP-1alpha (Macrophage Inflammatory Protein-1alpha) (Day 34, LDD 0.2255): 3.03 ng/mL and 2.88 ng/mL and 3.08 ng/mL
- MIP-3beta (Macrophage Inflammatory Protein-3beta) (Day 34, LDD 0.465): 2.79 ng/mL and 2.49 ng/mL and 3.11 ng/mL
- Tissue Factor (Day 34, LDD 0.5175): 10.8 ng/mL and 10.4 ng/mL and 13.3 ng/mL
- MPO (Myeloperoxidase) (Day 34, LDD 0.95): 247 ng/mL and 254 ng/mL and 242 ng/mL
- TPO (Thromboproletin) (Day 34, LDD 2.66): 43.4 ng/mL and 30.4 ng/mL and 36.1 ng/mL
- SAP (Setrum Amtyloid P) (Day 34, LDD 5.4): 51.8 µg/mL and 31 µg/mL and 42.6 µg/mL
- MIP-2 (Macrophage Inflammatory Protein-2) (Day 34, LDD 7.174): 36.8 pg/mL and 26.6 pg/mL and 22.2 pg/mL
- MMP-9 (Matrix Metalloproteinase-9) (Day 34, LDD 10): 503 ng/mL and 334 ng/mL and 255 ng/mL
- MCP-1 (Monocyte Chemoattractant Protein-1) (Day 34, LDD 16.924): 84.6 pg/mL and 56 pg/mL and 101 pg/mL
- VCAM-1 (Vescular Cell Adhesion Molecule-1) (Day 34, LDD 19): 1860 ng/mL and 2190 ng/mL and 2470 ng/mL
- MDC (Macrophage-Derived Chemokine) (Day 34, LDD 21.85): 1390 pg/mL and 1120 pg/mL and 1360 pg/mL
- VEGF (Vescular Endotheial Cell Growth Factor) (Day 34, LDD 38.2): 160 pg/mL and 141 pg/mL and 155 pg/mL
- IP-10 (Inducible Protein-10) (Day 34, LDD 40.28): 81 pg/mL and 59 pg/mL and 54.2 pg/mL
- LIF (Leukemia Infabitory Factor) (Day 34, LDD 43.6): 1430 pg/mL and 1500 pg/mL and 1480 pg/mL
- MCP-5 (Monocyte Chemoattractant Protein-5) (Day 34, LDD 46.38): 57.8 pg/mL and 29.2 pg/mL and 46.7 pg/mL
- SCF (Stem Cell Factor) (Day 34, LDD 75.17): 182 pg/mL and 220 pg/mL and 217 pg/mL
- Lymphotactin (Day 34, LDD 85.48): 196 pg/mL and 162 pg/mL and 197 pg/mL
- VWF (Von Willebrand Factor) (Day 34, LDD 98.6): 101 ng/mL and 137 ng/mL and 135 ng/mL
- M-CSF (Macrophage-Colony Stimulating Factor) (Day 41, LDD 0.01795): 5.02 ng/mL and 5.67 ng/mL and 6.07 ng/mL
- MIP-1gamma (Macrophage Inflammatory Protein-1gamma) (Day 41, LDD 0.0736): 42.8 ng/mL and 32.7 ng/mL and 42.5 ng/mL
- OSM (Oncostatin M) (Day 41, LDD 0.13): <low>
- TNF-alpha (Tumor Necrosis Factor-alpha) (Day 41, LDD 0.137): <low>
- IL-5 (Interleukin-5) (Day 41, LDD 0.194): 0.474 ng/mL and 0.254 ng/mL and 0.264 ng/mL
- MIP-1alpha (Macrophage Inflammatory Protein-1alpha) (Day 41, LDD 0.2255): 3.13 ng/mL and 2.93 ng/mL and 3.03 ng/mL
- IL-7 (Interleukin-7) (Day 41, LDD 0.309): <low>
- MIP-3beta (Macrophage Inflammatory Protein-3beta) (Day 41, LDD 0.465): 3.05 ng/mL and 3.03 ng/mL and 2.87 ng/mL
- Tissue Factor (Day 41, LDD 0.5175): 10.8 ng/mL and 9.17 ng/mL and 9.37 ng/mL
- MPO (Myeloperoxidase) (Day 41, LDD 0.95): 208 ng/mL and 228 ng/mL and 285 ng/mL
- SGOT (Serum Glutamic-Oxaloacetic Transaminase) (Day 41, LDD 1.86): 85.8 µg/mL and 93.9 µg/mL and 71.1 µg/mL
- TPO (Thromboproletin) (Day 41, LDD 2.66): 38 ng/mL and 32.4 ng/mL and 36.1 ng/mL
- SAP (Setrum Amtyloid P) (Day 41, LDD 5.4): 47.9 µg/mL and 38.6 µg/mL and 46 µg/mL
- MIP-2 (Macrophage Inflammatory Protein-2) (Day 41, LDD 7.174): 25.9 pg/mL and 23.4 pg/mL and 19.7 pg/mL
- MCP-1 (Monocyte Chemoattractant Protein-1) (Day 41, LDD 16.924): 71.9 pg/mL and 53.1 pg/mL and 74.8 pg/mL
- VCAM-1 (Vescular Cell Adhesion Molecule-1) (Day 41, LDD 19): 1840 ng/mL and 1940 ng/mL and 2390 ng/mL
